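All cell lines were grown in 96-well plates and treated with compound for 48 hours. Here, GI50 denotes the concentration required for 50% inhibition of growth.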 The source made the active and inactive calls. Rule as the data show it: active = GI50 up to about 1.1 µM and inactive = higher.
Legend:
Assay in all cases: inhibition of tumour cell growth, NCI panel, 48 h
786-0 = test system: 786-0
U-251 = test system: U-251
ACHN = test system: ACHN
SK-MEL-2 = test system: SK-MEL-2
KM12 = test system: KM12
SK-OV-3 = test system: SK-OV-3
M14 = test system: M14
HOP-62 = test system: HOP-62
SK-MEL-28 = test system: SK-MEL-28
Malme-3M = test system: Malme-3M
HL-60 = test system: HL-60
SF-539 = test system: SF-539
TK-10 = test system: TK-10
OVCAR-5 = test system: OVCAR-5
OVCAR-4 = test system: OVCAR-4
UO-31 = test system: UO-31

Measured: GI50

CCCCCCCCCCCc1c(O)c(=O)c2c(oc3c(=O)c(CCCCCCCCCCC)c(O)c(=O)c3n2-c2ccc(N(C)C)cc2)c1=O
inactive: 786-0 17.5 µM | U-251 21.4 µM | ACHN 20.7 µM | SK-MEL-2 21.7 µM | KM12 12.9 µM | SK-OV-3 19.7 µM | M14 16.3 µM | HOP-62 20.7 µM | SK-MEL-28 18 µM | Malme-3M 22.4 µM | HL-60 27.1 µM | SF-539 20.3 µM | TK-10 15.6 µM | OVCAR-5 23.8 µM | OVCAR-4 16.5 µM

Cc1ccc(NC(=O)C(=O)CC(=O)c2c(C)[n+]([O-])c3ccccc3[n+]2[O-])cc1
inactive: 786-0 40.6 µM | U-251 31 µM | ACHN 26.2 µM | SK-MEL-2 21 µM | KM12 29.2 µM | SK-OV-3 73.1 µM | M14 23.9 µM | HOP-62 > 100 µM | SK-MEL-28 46.6 µM | UO-31 > 100 µM | Malme-3M 27.9 µM | HL-60 19.3 µM | SF-539 29.2 µM | TK-10 91 µM | OVCAR-5 40.6 µM | OVCAR-4 22.6 µM

Nc1nc(Cl)c2ncn(CCCC(c3ccccc3)P(=O)(O)O)c2n1 (stereo unspecified)
inactive: 786-0 > 100 µM | U-251 > 100 µM | ACHN > 100 µM | SK-MEL-2 > 100 µM | KM12 > 100 µM | SK-OV-3 > 100 µM | M14 > 100 µM | HOP-62 > 100 µM | SK-MEL-28 > 100 µM | UO-31 > 100 µM | Malme-3M > 100 µM | HL-60 > 100 µM | SF-539 > 100 µM | TK-10 > 100 µM | OVCAR-5 > 100 µM

Clc1ccc(/N=N/c2nc3ccccc3nc2/N=N/c2ccc(Cl)cc2Cl)c(Cl)c1
inactive: 786-0 85.5 µM | U-251 > 100 µM | ACHN 45.9 µM | SK-MEL-2 > 100 µM | KM12 > 100 µM | HOP-62 > 100 µM | SK-MEL-28 > 100 µM | UO-31 > 100 µM | Malme-3M > 100 µM | HL-60 31.5 µM | SF-539 > 100 µM | TK-10 > 100 µM | OVCAR-4 > 100 µM

COc1cc(/C=C/C(=O)c2sc(NNC(C)=O)nc2C)ccc1O
inactive: 786-0 > 100 µM | U-251 > 100 µM | ACHN > 100 µM | SK-MEL-2 > 100 µM | KM12 > 100 µM | SK-OV-3 > 100 µM | HOP-62 > 100 µM | SK-MEL-28 > 100 µM | UO-31 > 100 µM | Malme-3M > 100 µM | HL-60 > 100 µM | SF-539 > 100 µM | TK-10 > 100 µM | OVCAR-5 > 100 µM

O=C(CCCCCCCCC(=O)OCCCn1cc(C(=O)NC(=O)OCc2ccccc2)c(=O)[nH]c1=O)OCCCn1cc(C(=O)NC(=O)OCc2ccccc2)c(=O)[nH]c1=O
inactive: 786-0 > 100 µM | U-251 > 100 µM | ACHN > 100 µM | SK-MEL-2 > 100 µM | KM12 > 100 µM | SK-OV-3 > 100 µM | M14 > 100 µM | HOP-62 > 100 µM | SK-MEL-28 > 100 µM | UO-31 > 100 µM | Malme-3M > 100 µM | HL-60 > 100 µM | SF-539 > 100 µM | TK-10 > 100 µM | OVCAR-5 > 100 µM | OVCAR-4 > 100 µM

C/C(=N\NC(=O)CC#N)c1c(O)cc(C)oc1=O
inactive: 786-0 > 100 µM | U-251 > 100 µM | ACHN > 100 µM | SK-MEL-2 > 100 µM | KM12 > 100 µM | SK-OV-3 > 100 µM | M14 > 100 µM | HOP-62 > 100 µM | SK-MEL-28 > 100 µM | UO-31 > 100 µM | Malme-3M > 100 µM | HL-60 > 100 µM | SF-539 > 100 µM | TK-10 > 100 µM | OVCAR-4 > 100 µM

CCCCC[C@@H]1CCCC2NC(CCCCCO[Si](c3ccccc3)(c3ccccc3)C(C)(C)C)CCC21 (stereo partly specified)
inactive: 786-0 18.1 µM | U-251 14.1 µM | ACHN 13.5 µM | SK-MEL-2 15.1 µM | KM12 12.5 µM | SK-OV-3 21.8 µM | M14 14.1 µM | HOP-62 17.9 µM | SK-MEL-28 17.1 µM | UO-31 13.4 µM | Malme-3M 19.1 µM | HL-60 8.71 µM | SF-539 15.2 µM | TK-10 18.7 µM | OVCAR-5 20.1 µM | OVCAR-4 8.67 µM

CC(C)S(=O)(=O)n1c(N)nc2ccc(/C(=N/O)c3ccccc3)cc21 [ENVIROXIME]
inactive: 786-0 40.3 µM | U-251 39.3 µM | ACHN 13.7 µM | SK-MEL-2 20.9 µM | KM12 20.6 µM | SK-OV-3 22.4 µM | M14 17.9 µM | HOP-62 13.9 µM | SK-MEL-28 36.1 µM | UO-31 17.3 µM | Malme-3M 45.4 µM | HL-60 12.2 µM | SF-539 15 µM | TK-10 32.4 µM | OVCAR-5 21 µM | OVCAR-4 23.5 µM

CCN(CC)c1ccc(/N=C2\C=C(Cl)C(=O)c3ncccc32)c(C)c1
inactive: 786-0 3.08 µM | U-251 4.88 µM | ACHN 2.96 µM | SK-MEL-2 7.74 µM | SK-OV-3 31.3 µM | M14 2.9 µM | HOP-62 5.37 µM | SK-MEL-28 8.2 µM | UO-31 12.4 µM | Malme-3M 2.88 µM | HL-60 1.86 µM | SF-539 12.4 µM | TK-10 4.37 µM | OVCAR-4 5.27 µM

CC(C)NC1CCCCC2c3ccccc3C12O (stereo unspecified)
inactive: 786-0 > 100 µM | U-251 > 100 µM | ACHN > 100 µM | SK-MEL-2 > 100 µM | KM12 > 100 µM | SK-OV-3 > 100 µM | M14 > 100 µM | HOP-62 > 100 µM | SK-MEL-28 > 100 µM | UO-31 > 100 µM | Malme-3M > 100 µM | HL-60 > 100 µM | TK-10 > 100 µM | OVCAR-4 > 100 µM

C1=c2ccccc2=C2C(=C(c3ccccc3)C(c3ccccc3)=NN2c2ccccc2)S1
inactive: 786-0 58.6 µM | U-251 46.7 µM | ACHN > 100 µM | SK-MEL-2 > 100 µM | KM12 > 100 µM | SK-OV-3 > 100 µM | M14 > 100 µM | HOP-62 > 100 µM | SK-MEL-28 > 100 µM | UO-31 > 100 µM | Malme-3M > 100 µM | HL-60 > 100 µM | SF-539 > 100 µM | TK-10 > 100 µM | OVCAR-5 > 100 µM | OVCAR-4 > 100 µM

O=C1NC2OCC(O)C(O)C2O1 (stereo unspecified)
inactive: 786-0 > 100 µM | U-251 > 100 µM | ACHN > 100 µM | SK-MEL-2 > 100 µM | KM12 > 100 µM | SK-OV-3 > 100 µM | M14 > 100 µM | HOP-62 > 100 µM | SK-MEL-28 > 100 µM | UO-31 > 100 µM | Malme-3M > 100 µM | HL-60 > 100 µM | SF-539 > 100 µM | TK-10 > 100 µM | OVCAR-5 > 100 µM | OVCAR-4 > 100 µM

COCN/C(N)=N/C#N
inactive: 786-0 80.4 µM | U-251 27.4 µM | ACHN > 100 µM | SK-MEL-2 > 100 µM | KM12 > 100 µM | SK-OV-3 > 100 µM | M14 > 100 µM | HOP-62 > 100 µM | SK-MEL-28 > 100 µM | UO-31 > 100 µM | Malme-3M > 100 µM | HL-60 > 100 µM | SF-539 > 100 µM | TK-10 > 100 µM | OVCAR-5 > 100 µM | OVCAR-4 > 100 µM

C=CCc1cc(OC)c2c(c1)C(O)CC(c1ccc(OC)c(OC)c1)O2 (stereo unspecified)
inactive: 786-0 > 100 µM | U-251 > 100 µM | ACHN > 100 µM | SK-MEL-2 > 100 µM | KM12 > 100 µM | SK-OV-3 > 100 µM | M14 > 100 µM | HOP-62 > 100 µM | SK-MEL-28 > 100 µM | UO-31 > 100 µM | HL-60 24.9 µM | SF-539 78.2 µM | TK-10 > 100 µM | OVCAR-5 > 100 µM | OVCAR-4 > 100 µM

CCCN(CCC)c1c([N+](=O)[O-])cc(C(=O)N(CC)CC)cc1[N+](=O)[O-]
inactive: 786-0 27.5 µM | U-251 15.5 µM | ACHN 25.5 µM | SK-MEL-2 16.7 µM | SK-OV-3 25.5 µM | M14 23.2 µM | HOP-62 29.4 µM | SK-MEL-28 22.9 µM | UO-31 18 µM | Malme-3M 16.3 µM | HL-60 14 µM | SF-539 24.7 µM | TK-10 29 µM | OVCAR-5 30.9 µM

Nc1nc(SCC(=O)c2ccccc2)c2[nH]cnc2n1
inactive: 786-0 > 100 µM | U-251 > 100 µM | ACHN > 100 µM | SK-MEL-2 > 100 µM | KM12 > 100 µM | SK-OV-3 > 100 µM | M14 > 100 µM | HOP-62 > 100 µM | SK-MEL-28 > 100 µM | Malme-3M > 100 µM | HL-60 > 100 µM | SF-539 > 100 µM | TK-10 > 100 µM | OVCAR-5 > 100 µM | OVCAR-4 > 100 µM

— ChEMBL document CHEMBL1201862, “PubChem BioAssay data set” (2004)
